Source: US12186424B2, “Compositions and methods for treating pterygium recurrence” (Cloudbreak Therapeutics, LLC, priority 2015, dated 2025)
pIC50: −log10 of the molar value. “Also recorded” adds a separate entry of the source.

Columns and labels:
[1] = test system: suture-induced neovascularization in the rabbit cornea; test: Rabbit cornea suture model of neovascularization; assay type: in vivo
Protocol: The rabbit cornea suture model was established to assess drug effects on cornea neovascularization (Ko et al. Cornea. 2013; 32(5): 689-695; Perez-Santonj a et al. Am J Ophthalmol. 2010; 150(4):519-528). […] Thirty six female Zealand White rabbits were used to perform the study. […] The animals were treated in both eyes as described in Table 4. [table] During the study, the animals were closely observed for various ocular indications as well as general physical conditions including body weight. […] NIH ImageJ® software was used to analyze the ocular images. Each image was opened in ImageJ®, the scale was calibrated using the ruler in the photograph and the neovascularized area on the cornea near the suture was selected by the selection tool. […] The results were plotted as histograms of average with standard deviation for easy comparison.

[2] = test system: corneal neovascularization (NV); test: Human pterygium mouse model, corneal neovascularization score; assay type: in vivo, athymic nude mice; settings: vs day 7 baseline, score 0 through 3, 0.2% nintedanib, 0.05% sunitinib, 0.002% mitomycin or combination
[3] = rabbit, in vivo
[4] = test system: human pterygium epithelial cells (hPECs); test: Human pterygium mouse model, corneal pterygium lesion size; settings: vs day 7 baseline; 0.2% nintedanib, 0.05% sunitinib, 0.002% mitomycin or combination
Src = Src (Homo sapiens, UniProt P12931); settings: sources as Table 1 footnote; cited from earlier work
[5] = rabbits with corneal sutures dosed with sunitinib for 7 days (Perez-Santonja 2010); cited from earlier work
[6] = 0.05% BID topical, Day 10 (after 2 days of treatment)
[7] = 0.05% BID topical, Day 12 (after 4 days of treatment)
[8] = 0.05% BID topical, Day 14 (after 6 days of treatment)
[9] = 0.05% TID topical, Day 10 (after 2 days of treatment)
[10] = 0.05% TID topical, Day 12 (after 4 days of treatment)
[11] = 0.05% TID topical, Day 14 (after 6 days of treatment)
[12] = 0.2% BID topical, Day 10 (after 2 days of treatment)
[13] = 0.2% BID topical, Day 12 (after 4 days of treatment)
[14] = 0.2% BID topical, Day 14 (after 6 days of treatment)
[15] = 0.2% TID topical, Day 10 (after 2 days of treatment)
[16] = 0.2% TID topical, Day 12 (after 4 days of treatment)
[17] = 0.2% TID topical, Day 14 (after 6 days of treatment)

Src, sequence (P12931 whole entry, species assumed): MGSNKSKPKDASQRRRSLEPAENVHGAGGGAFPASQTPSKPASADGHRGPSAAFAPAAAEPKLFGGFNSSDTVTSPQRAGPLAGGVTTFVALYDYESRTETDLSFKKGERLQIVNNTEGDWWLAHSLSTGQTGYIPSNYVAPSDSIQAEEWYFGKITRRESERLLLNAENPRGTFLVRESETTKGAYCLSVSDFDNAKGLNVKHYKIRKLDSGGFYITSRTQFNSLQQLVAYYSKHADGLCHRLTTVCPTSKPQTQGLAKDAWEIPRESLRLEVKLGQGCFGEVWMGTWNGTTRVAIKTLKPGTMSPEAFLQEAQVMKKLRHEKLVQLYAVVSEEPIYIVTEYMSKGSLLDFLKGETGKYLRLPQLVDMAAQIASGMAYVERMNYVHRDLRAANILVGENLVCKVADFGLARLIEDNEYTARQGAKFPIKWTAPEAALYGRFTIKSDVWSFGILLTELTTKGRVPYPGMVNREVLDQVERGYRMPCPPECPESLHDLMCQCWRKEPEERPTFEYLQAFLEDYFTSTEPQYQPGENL

COC(=O)c1ccc2c(c1)NC(=O)/C2=C(\Nc1ccc(N(C)C(=O)CN2CCN(C)CC2)cc1)c1ccccc1 [Nintedanib, Methyl (3Z)-3-{[(4-{methyl[(4-methylpiperazin-1-yl)acetyl]amino}phenyl)amino] (phenyl)methylidene}-2-oxo-2,3-dihydro-1H-indole-6-carboxylate]
Neovascular Area [1, 6]: 5.97 mm^2 | Neovascular Area Mean Percent Change over Day 7 Baseline (− sign indicates decrease) [1, 6]: 64.08% | Neovascular Area [1, 7]: 5.03 mm^2 | Neovascular Area Mean Percent Change over Day 7 Baseline (− sign indicates decrease) [1, 7]: 45.56% | Neovascular Area [1, 8]: 7.20 mm^2 | Neovascular Area Mean Percent Change over Day 7 Baseline (− sign indicates decrease) [1, 8]: 99.48% | Neovascular Area [1, 9]: 3.23 mm^2 | Neovascular Area Mean Percent Change over Day 7 Baseline (− sign indicates decrease) [1, 9]: 1.99% | Neovascular Area [1, 10]: 2.14 mm^2 | Neovascular Area Mean Percent Change over Day 7 Baseline (− sign indicates decrease) [1, 10]: −27.87% | Neovascular Area [1, 11]: 4.01 mm^2 | Neovascular Area Mean Percent Change over Day 7 Baseline (− sign indicates decrease) [1, 11]: 32.66% | Neovascular Area [1, 12]: 3.32 mm^2 | Neovascular Area Mean Percent Change over Day 7 Baseline (− sign indicates decrease) [1, 12]: 12.09% | Neovascular Area [1, 13]: 4.15 mm^2 | Neovascular Area Mean Percent Change over Day 7 Baseline (− sign indicates decrease) [1, 13]: 37.15% | Neovascular Area [1, 14]: 5.44 mm^2 | Neovascular Area Mean Percent Change over Day 7 Baseline (− sign indicates decrease) [1, 14]: 73.51% | Neovascular Area [1, 15]: 2.48 mm^2 | Neovascular Area Mean Percent Change over Day 7 Baseline (− sign indicates decrease) [1, 15]: −16.84% | Neovascular Area [1, 16]: 2.56 mm^2 | Neovascular Area Mean Percent Change over Day 7 Baseline (− sign indicates decrease) [1, 16]: −13.80% | Neovascular Area [1, 17]: 2.88 mm^2 | Neovascular Area Mean Percent Change over Day 7 Baseline (− sign indicates decrease) [1, 17]: −1.51% | Effect on suture-induced neovascularization in the rabbit cornea (in words) ([1]; 0.2% or 0.05% topical, BID or TID, days 8 to 15): marked inhibitory effect on suture-induced neovascularization in the rabbit cornea | Effect on corneal neovascularization score (in words) [2]: reduced neovascularization score on the cornea during the treatments with the level on day 17 showing a significant difference from the baseline on day 7 | Effect on corneal neovascularization score (in words) ([2]; listed as nintedanib): reduced the neovascularization on cornea and the reduction was significant comparing levels on day 17 vs the baseline on day 7 | Potential toxicity: abnormal lens with incomplete lenticular opacity [3]: none was observed | Effect on pterygium lesion area on mouse cornea (in words) [4]: led to a reduction of the pterygium area on day 14 and day 17 in comparison to the baseline level on day 7; also recorded: reduced pterygium lesion area on mouse cornea

COc1cc2c(Oc3ccc4[nH]c(C)cc4c3F)ncnc2cc1OCCCN1CCCC1 [Cediranib]
pIC50 (Src): 6.89

CO[C@@]12[C@H](COC(N)=O)C3=C(C(=O)C(C)=C(N)C3=O)N1C[C@@H]1N[C@@H]12 [MMC]
Effect on corneal neovascularization score (in words) ([2]; listed as Mitomycin): reduced neovascularization score, with significant reductions on day 17 | Effect on corneal neovascularization score (in words) ([2]; listed as mitomycin): reduced the neovascularization on cornea and the reduction was significant comparing levels on day 17 vs the baseline on day 7 | Effect on pterygium lesion area on mouse cornea (in words) [4]: showed a trend of reduction in pterygium areas but didn't reach statistical significance at any of the time points; also recorded: showed a trend of reduction of pterygium lesion area but the differences at each time points from the day 7 baseline are not statistically significant

CCN(CC)CCNC(=O)c1c(C)[nH]c(/C=C2\C(=O)Nc3ccc(F)cc32)c1C [Sunitinib]
Anterior chamber cellular reaction [5]: an anterior chamber cellular reaction was observed on day 1 | Iris surface staining (drug deposits) [5]: Iris surface yellowish staining, which represents sunitinib deposits on the iris surface was observed during the whole dosing period | Neovascular Area [1, 9]: 3.58 mm^2 | Neovascular Area Mean Percent Change over Day 7 Baseline (− sign indicates decrease) [1, 9]: 10.80% | Neovascular Area [1, 10]: 4.62 mm^2 | Neovascular Area Mean Percent Change over Day 7 Baseline (− sign indicates decrease) [1, 10]: 49.72% | Neovascular Area [1, 11]: 5.96 mm^2 | Neovascular Area Mean Percent Change over Day 7 Baseline (− sign indicates decrease) [1, 11]: 98.38% | Potential toxicity: abnormal lens with incomplete lenticular opacity [3]: abnormal lens with incomplete lenticular opacity was observed in one rabbit
